Experimental data from ChEMBL document CHEMBL1201862, “PubChem BioAssay data set” (2004).
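Where inhibition never reached the appropriate level, the endpoint shown equals the highest concentration tested. Otherwise, values were interpolated linearly from a five-concentration, 48-hour dose response in 96-well plates. GI50 marks 50% less growth.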 Activity calls are given as the source filed them. No stated cut-off is given here; in the data, active = GI50 up to about 1.1 µM and inactive = higher.

Key:
Assay in all cases: NCI anticancer screen, dose series, 48 h
DMS-114 = test system: DMS-114
LXFL 529 = test system: LXFL 529
M19-MEL = test system: M19-MEL
RXF 631 = test system: RXF 631
SNB-78 = test system: SNB-78
XF498 = test system: XF498
DLD-1 = test system: DLD-1
HOP-18 = test system: HOP-18
BT-549 = test system: BT-549

Measured: GI50

CCOC(=O)C1=C(NC)OCC1=O
inactive: DMS-114 > 100 µM | LXFL 529 > 100 µM | M19-MEL > 100 µM | RXF 631 > 100 µM | SNB-78 > 100 µM | XF498 > 100 µM

COC1(Cc2ccccc2)C(=O)c2ccccc2N1C(C)=O (configuration not stated)
inactive: DLD-1 > 100 µM | DMS-114 > 100 µM | HOP-18 > 100 µM | LXFL 529 > 100 µM | M19-MEL > 100 µM | RXF 631 > 100 µM | SNB-78 > 100 µM | XF498 > 100 µM

C/C(=N\NC(=S)Nc1ccc([N+](=O)[O-])cc1S(=O)(=O)O)c1ccccn1
inactive: DLD-1 41.2 µM | DMS-114 39.7 µM | HOP-18 40.1 µM | LXFL 529 61 µM | M19-MEL 43.8 µM | RXF 631 > 100 µM | SNB-78 > 100 µM | XF498 30 µM

CCOC(=O)/C=C/n1c2ccccc2c(=O)c2cc(OC)ccc21
inactive: DLD-1 69.7 µM | DMS-114 65.2 µM | HOP-18 > 100 µM | LXFL 529 > 100 µM | M19-MEL > 100 µM | RXF 631 87.5 µM | XF498 48.5 µM

CC(C)OC(=O)c1cc(NC(=O)C(C)(C)C)c(F)cc1Cl
inactive: DMS-114 > 100 µM | HOP-18 > 100 µM | LXFL 529 > 100 µM | M19-MEL > 100 µM | RXF 631 > 100 µM | XF498 > 100 µM

CC#N.O[C@@H]1CCCC[C@@H]1O.O[C@@H]1CCCC[C@@H]1O.[TeH2]
inactive: DLD-1 22.7 µM | DMS-114 24.4 µM | HOP-18 27.5 µM | LXFL 529 63.7 µM | M19-MEL 25.1 µM | RXF 631 18.7 µM | SNB-78 > 100 µM | XF498 > 100 µM

Sc1nc(S)nc(Oc2ccc(Cl)c(Cl)c2)n1
inactive: BT-549 57.8 µM | DLD-1 27.1 µM | DMS-114 19.1 µM | HOP-18 36.4 µM | LXFL 529 34.9 µM | M19-MEL 22.8 µM | RXF 631 16.3 µM | SNB-78 34.4 µM | XF498 25.4 µM
